The target in one data set is T1, HO-1 (Rattus norvegicus, UniProt P06762).
T1 construct: selected to use the most native (i.e., closest to in vivo) forms of HO-1 and HO-2; from tissue; host or cells: rat spleen (male Sprague-Dawley), microsomal fraction
T1 sequence (P06762 1-289): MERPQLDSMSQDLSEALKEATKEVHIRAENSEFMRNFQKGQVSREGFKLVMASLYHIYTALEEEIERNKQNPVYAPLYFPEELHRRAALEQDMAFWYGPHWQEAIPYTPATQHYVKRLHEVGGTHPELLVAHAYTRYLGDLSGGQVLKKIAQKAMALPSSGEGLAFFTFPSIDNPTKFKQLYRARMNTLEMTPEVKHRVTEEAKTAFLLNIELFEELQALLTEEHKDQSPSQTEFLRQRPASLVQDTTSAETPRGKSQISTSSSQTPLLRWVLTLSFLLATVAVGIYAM
Description: HO-1 enzymatic activity, rat spleen microsomal fraction (bilirubin formation). The following applies: for IC50: rat spleen microsomal fraction, mean of triplicate ± SD; for SI (HO-2/HO-1): ratio of HO-2 and HO-1 IC50. The data set is classed as biochemical. On the procedure: (§1) HO-1 and HO-2 were obtained, respectively, from the rat spleen and brain as the microsomal fraction prepared by differential centrifugation; the dominance of HO-1 protein in the rat spleen and HO-2 in the rat brain has been well documented.[24] These particular microsomal preparations were selected to use the most native (i.e., closest to in vivo) forms of HO-1 and HO-2. Spleen and brain (Sprague-Dawley rats) microsomal fractions were prepared according to the procedure outlined by Ryter et al.[2] The experiments reported in the present paper complied with the current Italian law and met the guidelines of the Institutional Animal Care and Use Committee of the Ministry of Health (Directorate General for Animal Health and Veterinary Medicines, Italy) “Dosing of enzymatic activities in rat microsomes” (2018–2022), project code 02769.N.VLY. The experiments were performed in male Sprague-Dawley albino rats (150 g body weight and age 45 d). They had free access to water and were kept at room temperature with a natural photoperiod (12 h light–12 h dark cycle). For measuring HO-1 and HO-2 activities, each rat was sacrificed and their spleen and brain were excised and weighed. A homogenate (15%, w/v) of spleens and brains pooled from four rats was prepared in ice-cold HO-homogenizing buffer (50 mM Tris buffer, pH 7.4, containing 0.25 M sucrose) using a Potter–Elvehjem homogenizing system with a Teflon pestle. The microsomal fraction of rat spleen and brain homogenate was obtained by centrifugation at 10 000g for 20 min at 4 °C, followed by centrifugation of the supernatant at 100 000g for 60 min at 4 °C. The 100 000g pellet (microsomes) was resuspended in 100 mM of potassium phosphate buffer, pH 7.8, containing 2 mM MgCl2 with a Potter–Elvehjem homogenizing system. The rat spleen and brain microsomal fractions were divided into equal aliquots, placed into microcentrifuge tubes, and stored at −80 °C for up to 2 months.
(§2) Liver cytosol has been used as a source of biliverdin reductase. Rat liver was perfused through the hepatic portal vein with cold 0.9% NaCl; then, it was cut and flushed with 2 × 20 mL of ice-cold PBS to remove all of the blood. Liver tissue was homogenized in 3 volumes of a solution containing 1.15% KCl w/v and Tris buffer 20 mM, pH 7.8 on ice. Homogenates were centrifuged at 10 000g for 20 min at 4 °C. The supernatant was decanted and centrifuged at 100 000g for 1 h at 4 °C to sediment the microsomes. The 100 000g supernatant was saved and then stored in small amounts at −80 °C after its protein concentration was measured.
(§3) The HO-1 and HO-2 activities were determined by measuring the bilirubin formation using the difference in absorbance at 464–530 nm, as described by Ryter et al.[2] Reaction mixtures (500 μL) consisted of 20 mM of Tris–HCl, pH 7.4, (1 mg/mL) microsomal extract, 0.5–2 mg/mL of biliverdin reductase, 1 mM of NADPH, 2 mM of glucose 6-phosphate (G6P), 1 U of G6P dehydrogenase, 25 μM of hemin, and 10 μL of DMSO (or the same volume of DMSO solution of test compounds to a final concentration of 100, 10, and 1 μM). Incubations were carried out for 60 min at 37 °C in a circulating water bath in the dark. Reactions were stopped by adding the same volume of chloroform. After recovering the chloroform phase, the amount of bilirubin formed was measured with a double-beam spectrophotometer as OD464–530 nm (extinction coefficient, 40 mM/cm^–1 for bilirubin). One unit of the enzyme was defined as the amount of enzyme catalyzing the formation of 1 nmol of bilirubin/mg protein/h.

A further data set has as its system A172 cells. Description: MTT cell viability assay, A172. The data set is classed as cell-based, human. The following applies: 48 h. The method, then:
(§4) Experiments were performed on human GBM cell lines U87MG (ATCCC number #HTB-14) and A172 (ATCCC #CRL-1620) on DU145 (ATCC HTB-81) and human lung adenocarcinoma A549 (ATCC CCL-185-LUC2). All cell lines were obtained from the American Type Culture Collection (ATCC, Rockville, MD). Cells were grown in Dulbecco’s modified Eagle’s medium (DMEM) supplemented with 10% of heat-inactivated fetal bovine serum (FBS), 100 U/mL of penicillin, and 100 μg/mL of streptomycin (Sigma-Aldrich, Steinheim, Germany). Cells were incubated at 37 °C in a humidified atmosphere with 5% CO2.
(§5) The effect of selected compounds 7i and 7l–p on cell viability was assessed by performing an MTT assay. Cells were seeded into 96-well plates at a density of 7 × 10^3 cells/well in 100 μL of culture medium. After 24 h, cells were treated with selected compounds at three different concentrations (1 μM, 10 μM, and 50 μM) for 48 h. Following treatments, 0.5 mg/mL of 3-[4,5-dimethylthiazol-2-yl]-2,5-diphenyltetrazolium bromide (MTT) (Sigma-Aldrich) was added to each well and incubated for 4 h at 37 °C. Finally, dimethyl-sulfoxide (DMSO) was used to dissolve formazan salts, and absorbance was measured at 570 nm in a microplate reader (Biotek Synergy-HT). Eight replicate wells were used for each group.

The subject of another data set is U87MG cells. Nature of the data set: MTT cell viability assay, U87MG. Type of data set: cell-based, human. The conditions noted are these: 48 h. The method, then: as §4, §5
The target of another data set is T2, HO-2 (Rattus norvegicus, UniProt P23711).
T2 construct: selected to use the most native (i.e., closest to in vivo) forms of HO-1 and HO-2; from tissue; host or cells: rat brain (male Sprague-Dawley), microsomal fraction
T2 sequence (P23711 1-315): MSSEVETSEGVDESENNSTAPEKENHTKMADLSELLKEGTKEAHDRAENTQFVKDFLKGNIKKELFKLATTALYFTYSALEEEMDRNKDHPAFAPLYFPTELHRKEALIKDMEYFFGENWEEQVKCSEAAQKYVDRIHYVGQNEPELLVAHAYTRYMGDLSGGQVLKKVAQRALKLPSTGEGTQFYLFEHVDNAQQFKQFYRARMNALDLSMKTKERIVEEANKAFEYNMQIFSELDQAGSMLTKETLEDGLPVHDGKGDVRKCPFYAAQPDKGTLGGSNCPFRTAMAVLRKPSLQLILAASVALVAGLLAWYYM
Nature of the data set: HO-2 enzymatic activity, rat brain microsomal fraction (bilirubin formation). The following applies: mean of triplicate ± SD. The data set is classed as biochemical. The method, then:
as §1, §2, §3

[1] abbreviates: at both concentrations 1 and 10 μM.
[2] abbreviates: all tested concentrations (1, 10, 50 μM).

For `CN(C(=O)Cn1ccnc1)C(c1ccccc1)c1ccc(I)cc1` (stereo not drawn) [7n, 2-(1H-Imidazol-1-yl)-N-((4-iodophenyl)(phenyl)methyl)-N-methylacetamide], the melting point lay within 69 to 71 °C. At HO-1, the “fold more selective for the inducible isoform (HO-1 over HO-2)” value was “about 48 fold”, the half-inhibitory concentration (IC50) was 950 ± 90 nM and the “SI (HO-2/HO-1)” value is recorded as 48.3. In the data set on A172 cells (10 μM), the “cell viability reduction (in words)” value is on record as “milder activity”. Besides, in the data set on A172 cells (50 μM), the “cell viability reduction (in words)” value is “only at 50 μM”. Also, in the data set with U87MG cells (setting [1]), the cell viability reduction result was “more than 30%”. The compound further yielded an IC50 against HO-2 of 45900 ± 1670 nM.

Compound `CN(C(=O)Cn1ccnc1)C(c1ccccc1)c1ccc(OCc2ccccc2)cc1` (stereo not drawn) [7o, N-((4-(Benzyloxy)phenyl)(phenyl)methyl)-2-(1H-imidazol-1-yl)-N-methylacetamide] had a melting point of 119 to 121 °C. For the same compound, at HO-1, the “fold more selective for the inducible isoform (HO-1 over HO-2)” value is 9 fold, the concentration for half-maximal inhibition (IC50) was found to be 1200 ± 110 nM and the “SI (HO-2/HO-1)” value amounted to 9.3. Also, the “cell viability reduction (in words)” value with A172 cells (setting [2]) is reported as “remarkable reduction of cell viability”. Further, the cell viability reduction entry in the data set with U87MG cells (setting [1]) is “around 20%”. The compound also gave an IC50 against HO-2 of 11200 ± 180 nM.

In the case of `CN(C(=O)Cn1ccnc1)C(c1ccccc1)c1ccc(Cl)cc1` (stereo not drawn) [7l, N-((4-Chlorophenyl)(phenyl)methyl)-2-(1H-imidazol-1-yl)-N-methylacetamide], at HO-1, the “HO-1 vs HO-2 selectivity (in words)” value was “superimposable HO-1 and HO-2 IC50 values”; the IC50 stood at 950 ± 40 nM; the “SI (HO-2/HO-1)” value is on record as 1.3. For the same compound, the “cell viability reduction (in words)” value in the data set with A172 cells (setting [2]) is listed as “remarkable reduction of cell viability”. The cell viability reduction result with U87MG cells (at all of the tested concentrations (1, 10, 50 μM)) is recorded as “more than 60%”. The compound further had an IC50 on HO-2 of 1200 ± 70 nM.

For the origin of these results see PMC8474116, “Discovery of Novel Acetamide-Based Heme Oxygenase-1 Inhibitors with Potent In Vitro Antiproliferative Activity” (Journal of Medicinal Chemistry, 2021).
